Converted amounts (≈) assume the structure as drawn.
These compounds were tested on M. tuberculosis (assay: microbe, parasite or virus in culture). Details: Mycobacterium tuberculosis, 120 h; read-out: QUM (MIC80).
Assay type: cell-based

| SMILES | MIC80 [µM] |
| --- | --- |
| CCc1nc2c(Cl)cccn2c1C(=O)NCc1ccc(N2CCN(c3ccc(Cl)cc3)CC2)cc1 [Compound 47] | < 1 |
| CCc1nc2ccc(F)cn2c1C(=O)NCc1ccc(N2CCC(c3ccc(C(F)(F)F)cc3)CC2)cc1 [Compound 11] | < 1 |
| CCc1nc2ccc(F)cn2c1C(=O)NCc1ccc(N2CCC(c3ccc(Cl)cc3)CC2)cc1 [Compound 162] | < 1 |
| CCc1nc2ccccn2c1C(=O)NCc1ccc(N2CCC(c3ccc(OC)cc3)CC2)cc1 [Compound 180] | < 1 |
| CCc1nc2c(C(F)(F)F)cccn2c1C(=O)NCc1ccc(N2CCN(c3ccc(C)cc3)CC2)cc1 [Compound 99] | 1 to 20 (≈ 0.522 to 10.4 µg/mL) |
| CCc1nc2cc(C(F)(F)F)ccn2c1C(=O)NCc1ccc(N2CCC(c3ccc(F)cc3)CC2)cc1 [Compound 4] | < 1 |
| CCc1nc2ccc(C(F)(F)F)cn2c1C(=O)NCc1ccc(N2CCC(c3ccc(OC)cc3)CC2)cc1 [Compound 120] | < 1 |
| CCc1nc2cc(C)ccn2c1C(=O)NCc1ccc(N2CCN(c3ccc(C(F)(F)F)cc3)CC2)cc1 [Compound 61] | < 1 |
| Cc1nc2ccc(Cl)cn2c1C(=O)NCc1ccc(N2CCC(c3ccc(F)cc3)CC2)cc1 [Compound 325] | < 1 |
| CCc1nc2c(C)cccn2c1C(=O)NCc1ccc(N2CCN(c3ccc(C(F)(F)F)cc3)CC2)cc1 [Compound 40] | < 1 |
| CCc1nc2ccc(C)cn2c1C(=O)NCc1ccc(N2CCC(c3ccc(F)cc3)CC2)cc1 [Compound 19] | < 1 |
| CCc1nc2ccc(C)cn2c1C(=O)NCc1ccc(N2CCC(c3ccc(OC)cc3)CC2)cc1 [Compound 222] | < 1 |
| CCc1nc2cc(Cl)ccn2c1C(=O)NCc1ccc(N2CCN(c3ccc(C(F)(F)F)cc3)CC2)cc1 [Compound 204] | < 1 |
| CCc1nc2c(Br)cccn2c1C(=O)NCc1ccc(N2CCC(c3ccc(Cl)cc3)CC2)cc1 [Compound 213] | < 1 |
| CCc1nc2c(OC)cccn2c1C(=O)NCc1ccc(N2CCC(c3ccccc3)CC2)cc1 [Compound 177] | < 1 |
| CCc1nc2ccc(Cl)cn2c1C(=O)NCc1ccc(N2CCC(c3ccc(C=O)cc3)CC2)cc1 [Compound 346] | < 1 |
| CCc1nc2c(C)cccn2c1C(=O)NCc1ccc(N2CCC(c3ccc(OC)cc3)CC2)cc1 [Compound 8] | < 1 |
| CCc1nc2ccc(OC)cn2c1C(=O)NCc1ccc(N2CCC(c3ccccc3)CC2)cc1 [Compound 118] | < 1 |
| CCc1nc2cc(Br)ccn2c1C(=O)NCc1ccc(N2CCN(c3ccc(C(F)(F)F)cc3)CC2)cc1 [Compound 214] | < 1 |
| CCc1nc2ccc(F)cn2c1C(=O)NCc1ccc(N2CCC(c3ccc(OC)cc3)CC2)cc1 [Compound 150] | < 1 |
| CCc1nc2cc(C(F)(F)F)ccn2c1C(=O)NCc1ccc(N2CCC(c3ccc(C(F)(F)F)cc3)CC2)cc1 [Compound 26] | < 1 |
| CCc1nc2ccccn2c1C(=O)NCc1ccc(N2CCC(c3ccc(C(F)(F)F)cc3)CC2)cc1 [Compound 230] | < 1 |
| CCc1nc2ccccn2c1C(=O)NCc1ccc(N2CCC(c3ccc(Cl)cc3)CC2)cc1 [Compound 139] | < 1 |
| CCc1nc2cc(C(F)(F)F)ccn2c1C(=O)NCc1ccc(N2CCC(c3ccccc3)CC2)cc1 [Compound 3] | < 1 |
| CCc1nc2ccc(OC)cn2c1C(=O)NCc1ccc(N2CCN(c3ccc(C)cc3)CC2)cc1 [Compound 100] | < 1 |

| SMILES | MIC80 [µM] |
| --- | --- |
| Cc1ccc(C2CCN(c3ccc(CNC(=O)c4c(C)nc5ccc(F)cn45)cc3)CC2)cc1 [Compound 314] | < 1 |
| CCc1nc2cc(Br)ccn2c1C(=O)NCc1ccc(N2CCC(c3ccc(F)cc3)CC2)cc1 [Compound 133] | < 1 |
| CCc1nc2ccc(Cl)cn2c1C(=O)NCc1ccc(N2CCC(c3ccc(CO)cc3)CC2)cc1 [Compound 345] | < 1 |
| CCc1nc2cc(Cl)ccn2c1C(=O)NCc1ccc(N2CCC(c3ccc(OC)cc3)CC2)cc1 [Compound 205] | < 1 |
| CCc1nc2ccccn2c1C(=O)NCc1ccc(N2CCN(c3ccc(Cl)cc3)CC2)cc1 [Compound 37] | < 1 |
| CCc1nc2ccc(Cl)cn2c1C(=O)NCc1ccc(N2CCN(c3ccc(Cl)cc3)CC2)cc1 [Compound 45] | < 1 |
| CCc1nc2cc(Cl)ccn2c1C(=O)NCc1csc(-c2ccc(OC(F)(F)F)cc2)n1 [Compound 279] | < 1 |
| CCc1nc2c(Br)cccn2c1C(=O)NCc1ccc(N2CCN(c3ccc(Cl)cc3)CC2)cc1 [Compound 199] | < 1 |
| CCc1nc2c(C(F)(F)F)cccn2c1C(=O)NCc1ccc(N2CCC(c3ccc(Cl)cc3)CC2)cc1 [Compound 22] | 1 to 20 (≈ 0.541 to 10.8 µg/mL) |
| Cc1ccc(C2CCN(c3ccc(CNC(=O)c4c(C)nc5ccc(Cl)cn45)cc3)CC2)cc1 [Compound 326] | < 1 |
| CCc1nc2c(Cl)cccn2c1C(=O)NCc1ccc(N2CCN(c3ccccc3)CC2)cc1 [Compound 64] | < 1 |
| CCc1nc2c(C)cccn2c1C(=O)NCc1ccc(N2CCC(c3ccc(Cl)cc3)CC2)cc1 [Compound 173] | < 1 |
| CCc1nc2ccc(Cl)cn2c1C(=O)NCc1ccc2cc[nH]c2c1 [Compound 273] | < 1 |
| CCc1nc2c(C)cccn2c1C(=O)NCc1ccc(N2CCC(c3ccc(C)cc3)CC2)cc1 [Compound 144] | < 1 |
| CCc1nc2ccc(C)cn2c1C(=O)NCc1ccc(N2CCN(c3ccc(C)cc3)CC2)cc1 [Compound 65] | < 1 |
| CCc1nc2ccc(C(F)(F)F)cn2c1C(=O)NCc1ccc(N2CCN(c3ccc(OC)cc3)CC2)cc1 [Compound 109] | < 1 |
| CCc1nc2c(OC)cccn2c1C(=O)NCc1ccc(N2CCC(c3ccc(Cl)cc3)CC2)cc1 [Compound 212] | 1 to 20 (≈ 0.503 to 10.1 µg/mL) |
| CCc1nc2cc(Br)ccn2c1C(=O)NCc1ccc(N2CCC(c3ccc(C(F)(F)F)cc3)CC2)cc1 [Compound 132] | < 1 |
| CCc1nc2c(C(F)(F)F)cccn2c1C(=O)NCc1ccc(N2CCC(c3ccc(F)cc3)CC2)cc1 [Compound 78] | 1 to 20 (≈ 0.525 to 10.5 µg/mL) |
| CCc1nc2c(Br)cccn2c1C(=O)NCc1ccc(N2CCN(c3ccc(C)cc3)CC2)cc1 [Compound 97] | < 1 |
| CCc1nc2cc(F)ccn2c1C(=O)NCc1ccc(N2CCC(c3ccccc3)CC2)cc1 [Compound 166] | < 1 |
| CCc1nc2ccc(Br)cn2c1C(=O)NCc1ccc(N2CCC(c3ccc(C)cc3)CC2)cc1 [Compound 79] | < 1 |
| CCc1nc2cc(OC)ccn2c1C(=O)NCc1ccc(N2CCN(c3ccc(OC(F)(F)F)cc3)CC2)cc1 [Compound 10] | < 1 |
| Cc1ccc(C2CCN(c3ccc(CNC(=O)c4c(C)nc5c(F)cccn45)cc3)CC2)cc1 [Compound 309] | < 1 |
| CCc1nc2cc(C(F)(F)F)ccn2c1C(=O)NCc1ccc(N2CCC(c3ccc(C)cc3)CC2)cc1 [Compound 24] | < 1 |

| SMILES | MIC80 [µM] |
| --- | --- |
| CCc1nc2c(F)cccn2c1C(=O)NCc1ccc(N2CCC(c3ccc(Cl)cc3)CC2)cc1 [Compound 176] | < 1 |
| CCc1nc2cc(Cl)ccn2c1C(=O)NCc1ccc(NC23CC4CC(CC(C4)C2)C3)cc1 [Compound 322] | < 1 |
| CCc1nc2cc(F)ccn2c1C(=O)NCc1ccc(N2CCC(c3ccc(Cl)cc3)CC2)cc1 [Compound 17] | < 1 |
| CCc1nc2cc(C)ccn2c1C(=O)NCc1ccc(N2CCN(c3ccccc3)CC2)cc1 [Compound 67] | < 1 |
| CCc1nc2ccc(Cl)cn2c1C(=O)NCc1ccc(N2CCN(C(=O)Cc3ccc(F)cc3)CC2)cc1 [Compound 236] | < 1 |
| CCc1nc2cc(Cl)ccn2c1C(=O)NCc1ccc(C(=O)Nc2ccc(F)cc2)cc1 [Compound 302] | < 1 |
| CCc1nc2ccc(C)cn2c1C(=O)NCc1ccc(N2CCC(c3ccc(Cl)cc3)CC2)cc1 [Compound 122] | < 1 |
| CCc1nc2cc(OC)ccn2c1C(=O)NCc1ccc(N2CCN(c3ccc(Cl)cc3)CC2)cc1 [Compound 220] | < 1 |
| Cc1nc2cc(F)ccn2c1C(=O)NCc1ccc(N2CCC(c3ccc(Cl)cc3)CC2)cc1 [Compound 348] | < 1 |
| CCc1nc2c(F)cccn2c1C(=O)NCc1ccc(N2CCC(c3ccc(OC)cc3)CC2)cc1 [Compound 15] | < 1 |
| CCc1nc2c(F)cccn2c1C(=O)NCc1ccc(N2CCN(c3ccc(Cl)cc3)CC2)cc1 [Compound 63] | < 1 |
| CCc1nc2ccc(OC)cn2c1C(=O)NCc1ccc(N2CCN(c3ccc(Cl)cc3)CC2)cc1 [Compound 128] | < 1 |
| CCc1nc2ccc(Cl)cn2c1C(=O)NCc1ccc(N2CCC(c3ccc(C(F)(F)F)cc3)CC2)cc1 [Compound 158] | < 1 |
| CCc1nc2ccc(Cl)cn2c1C(=O)NCc1csc(-c2ccc(OC(F)(F)F)cc2)n1 [Compound 280] | < 1 |
| CCc1nc2cc(C(F)(F)F)ccn2c1C(=O)NCc1ccc(N2CCN(c3ccc(OC(F)(F)F)cc3)CC2)cc1 [Compound 203] | < 1 |
| CCc1nc2c(F)cccn2c1C(=O)NCc1ccc(N2CCN(c3ccc(C(F)(F)F)cc3)CC2)cc1 [Compound 161] | < 1 |
| CCc1nc2cc(C(F)(F)F)ccn2c1C(=O)NCc1ccc(N2CCN(c3ccc(C(F)(F)F)cc3)CC2)cc1 [Compound 206] | < 1 |
| CCc1nc2cc(Br)ccn2c1C(=O)NCc1ccc(N2CCC(c3ccc(Cl)cc3)CC2)cc1 [Compound 134] | < 1 |
| CCc1nc2cc(OC)ccn2c1C(=O)NCc1ccc(N2CCN(c3ccc(OC)cc3)CC2)cc1 [Compound 110] | < 1 |
| CCc1nc2c(F)cccn2c1C(=O)NCc1ccc(N2CCC(c3ccc(C(F)(F)F)cc3)CC2)cc1 [Compound 12] | < 1 |
| CCc1nc2cc(OC)ccn2c1C(=O)NCc1ccc(N2CCC(c3ccc(OC)cc3)CC2)cc1 [Compound 92] | < 1 |
| CCc1nc2ccc(Br)cn2c1C(=O)NCc1ccc(N2CCC(c3ccc(C(F)(F)F)cc3)CC2)cc1 [Compound 136] | < 1 |
| CCc1nc2cc(Cl)ccn2c1C(=O)NCc1ccc(N2CCOCC2)c(F)c1 [Compound 308] | < 1 |
| CCc1nc2c(C(F)(F)F)cccn2c1C(=O)NCc1ccc(N2CCN(c3ccc(C(F)(F)F)cc3)CC2)cc1 [Compound 217] | 1 to 20 (≈ 0.576 to 11.5 µg/mL) |
| CCc1nc2ccc(F)cn2c1C(=O)NCc1ccc(N2CCC(c3ccc(C)cc3)CC2)cc1 [Compound 115] | < 1 |

Source: patent US20160185774A1, “Anti-Infective Compounds” (priority 2013, published 2016)
